Several values for one entry are separate records, joined by “and”; a condition that tells them apart may be missing. Equal entries are not always repeated. Where two headings read alike, the source gives them in different places.
Tests used:
[1] = biological target: T1, hepatic Glc-6-Pase system (Homo sapiens, UniProt O43826); assay: Glc-6-Pase hydrolysis in intact human liver microsomes (phosphate release); assay type: biochemical; conditions: for Percentage inhibition of G6Pase: each compound at its naturally occurring concentration in 0.6 mM extract, 2 mM substrate; for Contribution to Glc-6-Pase system inhibition by the green coffee extract: inhibition of compound divided by inhibition of 0.6 mM total CGAs from the extract
T1 construct: Glc-6-Pase hydrolysis in intact human liver microsomes; tissue BD Biosciences; host or cells: pooled human liver microsomes, intact
T1 sequence (O43826 1-429): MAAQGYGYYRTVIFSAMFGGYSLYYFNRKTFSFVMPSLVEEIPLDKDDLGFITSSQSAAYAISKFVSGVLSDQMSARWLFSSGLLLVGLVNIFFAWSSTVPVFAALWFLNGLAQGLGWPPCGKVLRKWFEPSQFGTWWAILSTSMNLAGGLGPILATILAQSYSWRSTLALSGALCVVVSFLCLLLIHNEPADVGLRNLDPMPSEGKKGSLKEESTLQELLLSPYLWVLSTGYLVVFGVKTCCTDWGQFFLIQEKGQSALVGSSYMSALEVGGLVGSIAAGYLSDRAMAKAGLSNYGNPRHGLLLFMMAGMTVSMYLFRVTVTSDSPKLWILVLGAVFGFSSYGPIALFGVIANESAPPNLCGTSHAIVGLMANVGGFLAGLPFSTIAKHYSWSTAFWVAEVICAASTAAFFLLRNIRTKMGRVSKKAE
Experimental: A secondary purpose of Example 8 was to determine the inhibitory effects of a series of structurally-related compounds in the extract, such as caffeoylquinic acids and caffeoylferuloylquinic acids. Example 8 tested whether the extract could inhibit the hepatic Glc-6-Pase system by measuring enzymatic activity in human liver microsomes. These experiments were conducted with or without the extract at final CGA concentrations of 0.2, 0.4 and 0.6 mM. The effect of the extract on Glc-6-Pase activity was tested as a function of […] substrate concentration (2-10 mM).
Measurement of Glc-6-Pase Activity in Microsomes: Microsomal Glc-6-Pase activity was measured on the basis of the rate of release of phosphate under the assay conditions that were described by Wallert et al., Kinetic analysis of glucose-6-phosphatase: an investigative approach to carbohydrate metabolism and kinetics. Biochem. Mol. Biol. Educ. 2001, 29, 199-203. The enzyme assays were performed at 37° C. in a final volume of […] containing 100 mM cacodylic acid, pH 6.5 and concentrations of the substrate […] ranging from 2 to 10 mM.
The reaction was started by adding intact microsomes and was stopped with the addition of 3.2 mL of colorimetric reagent [9 volumes of molybdate (0.42% ammonium molybdate in 1 N H2SO4), 2 volumes of 5% SDS and 1 volume of 10% ascorbic acid, freshly prepared and stored on ice for a maximum of 6 h]. All samples were incubated for 30 minutes at 45° C., and the absorbance of the phosphate-molybdate complex was measured at 820 nm.
Microsomal intactness was quantified by measuring Man-6-Pase activity. Anion, W J. Measurement of intactness of rat liver endoplasmic reticulum. Methods Enzymol. 1989, 174, 58-67. In a preliminary study, Glc-6-Pase activity in intact human liver microsomes was determined on the basis of microsomal protein concentration and incubation time to obtain optimal experimental conditions, that is, 100 μg of microsomal proteins and 5 minutes of incubation (data not shown). Quantification was performed at optimal wavelengths (330 nm) for the CGAs during chromatographic separation. Samples were filtered (0.45 μm), and 2 μL was injected directly. The standard deviation for three analyses of the same sample was <5% for all compounds.
Preparation of Test Compounds: Stock solutions of test compounds were prepared in ultrapure water (pH 6.5) and diluted with assay reagent to the final concentrations.
Enzymatic activity was expressed as micromoles of phosphate released per minute per milligram of protein. Results were expressed as means±standard deviation (SD) of three independent experiments. Percentage of inhibition of Glc-6 Pase system activity was calculated by dividing the initial rate of reaction in microsomes that were treated with individual compounds by the initial rate of reaction in untreated microsomes. […] Statistical analysis was performed using an ANOVA test followed by a post hoc Tukey test under a normality assumption (Shapiro Wilk) or Kruskall Wallis nonparametric test followed by Bonferroni adjusted Mann-Whitney test otherwise; p<0.05 was considered to be significant. […]

[2] = Plasma pharmacokinetics of CGA and metabolites after 400 mg green coffee extract, ten volunteers; assay type: in vivo, human; conditions: for Cmax / AUC / Tmax: plasma, 400 mg green coffee extract oral, mean ± SD, n = 10; for molar ratio 3,5-diCQA:4,5-diCQA:3,4-diCQA in plasma / molar ratio 5-CQA:4-CQA:3-CQA in plasma: ratios of AUC in plasma; for contribution to AUC of total phenolic compounds in plasma: mean values of plasma AUC
Description: In a further phase of the study, ten non-smoker volunteers (22-55 y), five male and five female, were recruited. […] They were asked to eat only animal foods, refined cereal foods and artificial beverages. […] Blood samples were collected into heparin-containing tubes. Baseline blood aliquots were used to determine hematocrit and hemoglobin levels by standard methods. Plasma samples were obtained by centrifugation of the blood samples immediately after being drawn. Urine samples were also collected at baseline interval (minus 2-0 h) and at intervals of 0-2 h; 2-4 h; 4-6 h and 6-8 h after coffee consumption into appropriate plastic containers. Total urine volume was measured for each collection period. Plasma and urine aliquots for determination of CGA were acidified with HCl and kept frozen in liquid nitrogen until analyses. Urine aliquots for determination of creatinine were acidified with HCl and kept at −20° C. until analyses.
(§1) Results of CGA and phenolic acids in urine were normalized by creatinine excretion.

[3] = Urinary excretion of CGA and metabolites after 400 mg green coffee extract, ten volunteers; assay type: in vivo, human; conditions: human, in vivo
Experimental: In a further phase of the study, ten non-smoker volunteers (22-55 y), five male and five female, were recruited. Subjects were instructed to avoid consumption of phenolic-containing foods during the 48 h prior to the study. They were asked to eat only animal foods, refined cereal foods and artificial beverages. On the day of the study, after 10-12 h overnight fasting, an I.V. catheter was inserted into the antecubital vein and a baseline heparinized blood sample was obtained. […] Blood samples were collected into heparin-containing tubes. Baseline blood aliquots were used to determine hematocrit and hemoglobin levels by standard methods. Plasma samples were obtained by centrifugation of the blood samples immediately after being drawn. Urine samples were also collected at baseline interval (minus 2-0 h) and at intervals of 0-2 h; 2-4 h; 4-6 h and 6-8 h after coffee consumption into appropriate plastic containers. Total urine volume was measured for each collection period. Plasma and urine aliquots for determination of CGA were acidified with HCl and kept frozen in liquid nitrogen until analyses. Urine aliquots for determination of creatinine were acidified with HCl and kept at −20° C. until analyses.
as §1

Glc-6-Pase [4] = biological target: T2, Glc-6-Pase (Rattus norvegicus, UniProt P43428); conditions: fully disrupted microsomes; cited from earlier work
T2 construct: host or cells: rat microsomes (liver)
T2 sequence (P43428 1-357): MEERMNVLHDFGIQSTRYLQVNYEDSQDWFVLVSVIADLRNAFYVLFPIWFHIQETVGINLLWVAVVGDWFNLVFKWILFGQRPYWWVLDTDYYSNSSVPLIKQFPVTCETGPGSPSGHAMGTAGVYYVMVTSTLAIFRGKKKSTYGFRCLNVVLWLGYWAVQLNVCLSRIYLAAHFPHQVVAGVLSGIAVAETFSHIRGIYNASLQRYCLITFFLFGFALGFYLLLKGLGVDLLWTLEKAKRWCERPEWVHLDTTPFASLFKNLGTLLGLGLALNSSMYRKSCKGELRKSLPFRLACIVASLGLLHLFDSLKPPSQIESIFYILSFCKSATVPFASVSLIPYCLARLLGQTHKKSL

Glc-6-Pase [5] = conditions: intact rat microsomes; cited from earlier work
[6] = both sexes, human, po, 400 mg, read-out: AUC
[7] = both sexes, human, po, 400 mg, read-out: Tmax

Compound	Percentage inhibition of G6Pase [1]	Contribution to Glc-6-Pase system inhibition by the green coffee extract [1] [%]	Cmax ([2]; both sexes, human, po, 400 mg) [nM]	AUC [2, 6] [µM·h]	Tmax [2, 7] [h]	molar ratio 3,5-diCQA:4,5-diCQA:3,4-diCQA in plasma [2]	contribution to AUC of total phenolic compounds in plasma [2] [%]	AUC [2] [µM·h]	Cmax [2] [nM]	molar ratio 5-CQA:4-CQA:3-CQA in plasma [2]	Tmax [2] [h]	total urinary excretion [3] [µmol]	inhibition of Glc-6-Pase (Glc-6-Pase [4])	inhibition of Glc-6-Pase (Glc-6-Pase [5])	content in baseline urine, variation among the subjects ([3]; both)
O=C(C=Cc1ccc(O)c(O)c1)OC1CC(O)(C(=O)O)CC(O)C1OC(=O)C=Cc1ccc(O)c(O)c1 (stereo not shown) [3,4-diCQA, 3,4-dicaffeoylquinic acid]	6.9 ± 4.3%	19	1500 ± 1600	5 ± 4.9	2.6 ± 1.8	1.0	–	–	–	–	–	–	–	–	–
O=C(C=Cc1ccc(O)c(O)c1)OC1CC(O)(C(=O)O)CC(OC(=O)C=Cc2ccc(O)c(O)c2)C1O (stereo not shown) [3,5-diCQA, 3,5-dicaffeoylquinic acid]	–	0	2700 ± 2700	8.7 ± 8.3	3.2 ± 2.5	1.7	–	–	–	–	–	–	–	–	–
O=C(C=Cc1ccc(O)c(O)c1)OC1CC(O)(C(=O)O)CC(O)C1O (stereo not shown) [3-CQA, 3-caffeoylquinic acid]	–	0	–	–	–	–	5.2	3.0 ± 4.5	900 ± 1400	1.0	–	–	–	–	–
O=C(C=Cc1ccc(O)c(O)c1)OC1CC(O)(C(=O)O)CC(O)C1OC(=O)C=Cc1ccc(O)c(O)c1 (stereo not shown) [4,5-diCQA, 4,5-dicaffeoylquinic acid]	13% and 12.8 ± 2.6%	35	–	–	–	1.4	–	6.8 ± 5.7	2500 ± 3000	–	3.3 ± 2.5	–	–	–	–
O=C(C=Cc1ccc(O)c(O)c1)OC1C(O)CC(O)(C(=O)O)CC1O (stereo not shown) [4-CQA, 4-caffeoylquinic acid]	14% and 14.4 ± 1.2%	40	1400 ± 1100	4.3 ± 5.4	3.6 ± 2.2	–	7.5	–	–	1.4	–	0.04	–	–	–
O=C(C=Cc1ccc(O)c(O)c1)OC1CC(O)(C(=O)O)CC(O)C1O (stereo not shown) [5-CQA, 5-caffeoylquinic acid]	9.2 ± 1.4%	25	–	–	–	–	31.3	17.9 ± 15.3	5900 ± 4200	6.0	3.3 ± 2.4	–	no effect	inhibits Glc-6-Pase	up to 0.35 μmol

— US10092613B2 (NATUREX, S.A., priority 2008, dated 2018)
